Source: ChEMBL document CHEMBL5500364, “Design, synthesis, and biological evaluation of some 2-(3-oxo-5,6-diphenyl-1,2,4-triazin-2(3H)-yl)-N-phenylacetamide hybrids as MTDLs for Alzheimer's disease therapy” (Eur J Med Chem, 2024)
Activity calls are given as the source filed them. The calls are words filed in the database; no cut-off is given here.

What was measured:
[1] = Acute toxicity in Wistar rat assessed as effect on heart tissue at 500 to 1000 mg/kg, po administered for 14 days by histopathological analysis; type: organism-based; conditions: in vivo, 336 h, dose 500-1000 mg/kg, time 14 day
[2] = tested on: Rattus norvegicus; experiment: Reversal of amyloid beta (1 to 42 residues) induced cognitive impairment in Wistar rat assessed as decrease in amyloid level in DG region of hippocampus at 10 mg/kg, po pretreated with amyloid beta for 7 days followed by compound administration for 9 days and measured after 5 days by immuno histochemical analysis; type: functional, organism-based; conditions: time 14.0 day
[3] = Tmax in male Wistar rat at 10 mg/kg, po measured after 72 hrs by HPLC analysis; type: ADME, organism-based; conditions: in vivo
[4] = target: Beta-secretase 1 (Homo sapiens, UniProt P56817); experiment: Inhibition of human BACE-1 using (7-Methoxycoumarin-4-acetyl-[Asn670, Leu671]-Amyloid beta/A4 precursor protein 770 fragments 667-676- (2, 4-dinitrophenyl) Lys-Arg-Arg amide trifluoroacetate salt as substrate incubated for 2 hrs by FRET-based analysis
[5] = target: Amyloid-beta precursor protein (Homo sapiens) (UniProt P05067); experiment: Inhibition of amyloid beta (1 to 42) (unknown origin) aggregation assessed as reduction in fluorescence intensity at 50 uM incubated for 48 hrs by confocal microscopic analysis
[6] = target: T1, Acetylcholinesterase (Homo sapiens, UniProt P22303); experiment: Inhibition of human erythrocyte AChE using acetylthiocholine iodide as substrate preincubated for 30 mins followed by substrate addition by DTNB based Ellman's colorimetric method
[7] = Acute toxicity in Wistar rat assessed as effect on lung appearance at 500 to 1000 mg/kg, po administered for 14 days by histopathological analysis; type: organism-based; conditions: in vivo, 336 h, dose 500-1000 mg/kg, time 14 day
[8] = MRT in male Wistar rat at 10 mg/kg, po measured after 72 hrs by HPLC analysis; type: ADME, organism-based; conditions: in vivo
[9] = tested on: Drosophila; experiment: Neuroprotective activity against ey-GAL4>UAS-amyloid beta (1 to 42) induced cellular toxicity in Oregon R-positive Drosophila model assessed as rescue of ommatidial patterns in eye at 10 to 20 uM by scanning electron microscopic imaging analysis; type: functional, organism-based; conditions: dose 10-20 µM
[10] = Acute toxicity in Wistar rat assessed as effect on kupffer cells appearance in liver at 500 to 1000 mg/kg, po administered for 14 days by histopathological analysis; type: organism-based; conditions: in vivo, 336 h, dose 500-1000 mg/kg, time 14 day
[11] = tested on: Rattus norvegicus; experiment: Reversal of amyloid beta (1 to 42 residues) induced cognitive impairment in Wistar rat assessed as decrease in BACE-1 level in CA1 region of hippocampus at 10 mg/kg, po pretreated with amyloid beta for 7 days followed by compound administration for 9 days and measured after 5 days by immuno histochemical analysis; type: functional, organism-based; conditions: time 14.0 day
[12] = Cmax in male Wistar rat at 10 mg/kg, po measured after 72 hrs by HPLC analysis; type: ADME, organism-based; conditions: in vivo
[13] = target: Amyloid-beta precursor protein (Homo sapiens) (UniProt P05067); experiment: Inhibition of amyloid beta (1 to 42) (unknown origin) aggregation assessed as reduction in size of amyloid-beta aggregates measured within 48 hrs by SEM imaging analysis
[14] = Acute toxicity in Wistar rat assessed as effect on central vein appearance in liver at 500 to 1000 mg/kg, po administered for 14 days by histopathological analysis; type: organism-based; conditions: in vivo, 336 h, dose 500-1000 mg/kg, time 14 day
[15] = Total AUC in male Wistar rat at 10 mg/kg, po measured after 72 hrs by HPLC analysis; type: ADME, organism-based; conditions: in vivo
[16] = tested on: Rattus norvegicus; experiment: Reversal of amyloid beta (1 to 42 residues) induced cognitive impairment in Wistar rat assessed as decrease in amyloid level in CA3 region of hippocampus at 10 mg/kg, po pretreated with amyloid beta for 7 days followed by compound administration for 9 days and measured after 5 days by immuno histochemical analysis; type: functional, organism-based; conditions: time 14.0 day
[17] = tested on: Rattus norvegicus; experiment: Reversal of amyloid beta (1 to 42 residues) induced cognitive impairment in Wistar rat assessed as reduction in focal gliosis in cerebral cortex at 2.5 to 10 mg/kg, po pretreated with amyloid beta for 7 days followed by compound administration for 9 days and measured after 5 days by Nissl's staining based analysis; type: functional, organism-based; conditions: dose 2.5-10 mg/kg, time 14.0 day
[18] = Toxicity in wildtype Oregon R-positive Drosophila assessed as reduction in eclosion at 100 to 200 uM pretreated for 5 days and measured for 15 days; conditions: 480 h, dose 100-200 µM, time 20 day
[19] = target: T1, Acetylcholinesterase; experiment: Mixed type non-competitive inhibition of human erythrocyte AChE using acetylthiocholine iodide as substrate assessed as decrease in Vmax with increase in Km at 0.25 to 0.75 uM by Lineweaver-burk plot analysis; conditions: dose 0.25-0.75 µM
[20] = Acute toxicity in Wistar rat assessed as maximum tolerated dose administered orally for 14 days; conditions: in vivo, route po, time 14 day
[21] = tested on: Drosophila; experiment: Neuroprotective activity in ey-GAL4>UAS-amyloid beta (1 to 42) induced cellular toxicity in Oregon R-positive Drosophila model assessed as rescue in eye phenotype at 10 uM by Stereo zoom microscopic imaging analysis relative to control; type: functional
[22] = tested on: Hippocampus; experiment: Reversal of scopolamine-induced oxidative stress in male Wistar rat brain hippocampus assessed as increase in catalase level preadministered orally with compound for 30 mins starting from 7 th day trail followed by scopolamine administration and measured after 5 mins by spectrophotometric analysis; type: functional, tissue-based; conditions: dose 2.5-10 mg/kg, route po, time 35.0 min
[23] = Acute toxicity in Wistar rat assessed as effect on PCT shape at 500 to 1000 mg/kg, po administered for 14 days by histopathological analysis; type: organism-based; conditions: in vivo, 336 h, dose 500-1000 mg/kg, time 14 day
[24] = tested on: Hippocampus; experiment: Reversal of scopolamine-induced oxidative stress in male Wistar rat brain hippocampus assessed as increase in SOD level at 2.5 to 10 mg/kg, po preadministered with compound for 30 mins starting from 7 th day trail followed by scopolamine administration and measured after 5 mins […]; type: functional, organism-based; conditions: dose 2.5-10 mg/kg, time 35.0 min
[25] = tested on: Rattus norvegicus; experiment: Reversal of amyloid beta (1 to 42 residues) induced cognitive impairment in Wistar rat assessed as reduction in escape latency time at 10 mg/kg, po pretreated with amyloid beta for 7 days followed by compound administration for 9 days and measured after 5 days by Morris water maze test; type: functional, organism-based; conditions: time 14.0 day
[26] = tested on: SH-SY5Y; experiment: Neuroprotective activity against amyloid-beta(1 to 42) induced oxidative stress in differentiated human SH-SY5Y cells assessed as increase in cell viability at 40 uM preincubated with amyloid-beta (1 to 42 ) for 24 hrs followed by compound addition and measured after 72 hrs by MTT assay relative to control; type: functional
[27] = Acute toxicity in Wistar rat assessed as effect on DCT shape at 500 to 1000 mg/kg, po administered for 14 days by histopathological analysis; type: organism-based; conditions: in vivo, 336 h, dose 500-1000 mg/kg, time 14 day
[28] = tested on: Rattus norvegicus; experiment: Reversal of amyloid beta (1 to 42 residues) induced cognitive impairment in Wistar rat assessed as reduction in appearance of pyknotic neuron bodies in hippocampus at 2.5 to 10 mg/kg, po pretreated with amyloid beta for 7 days followed by compound administration for 9 days and measured after 5 days by Nissl's staining based analysis; type: functional, organism-based; conditions: dose 2.5-10 mg/kg, time 14.0 day
[29] = target: T1, Acetylcholinesterase; experiment: Mixed type non-competitive inhibition of human erythrocyte AChE using acetylthiocholine iodide as substrate assessed as dissociation constant by dixon plot analysis
[30] = Acute toxicity in Wistar rat assessed as effect on glomerulus shape at 500 to 1000 mg/kg, po administered for 14 days by histopathological analysis; type: organism-based; conditions: in vivo, 336 h, dose 500-1000 mg/kg, time 14 day

T1 sequence (P22303 whole entry): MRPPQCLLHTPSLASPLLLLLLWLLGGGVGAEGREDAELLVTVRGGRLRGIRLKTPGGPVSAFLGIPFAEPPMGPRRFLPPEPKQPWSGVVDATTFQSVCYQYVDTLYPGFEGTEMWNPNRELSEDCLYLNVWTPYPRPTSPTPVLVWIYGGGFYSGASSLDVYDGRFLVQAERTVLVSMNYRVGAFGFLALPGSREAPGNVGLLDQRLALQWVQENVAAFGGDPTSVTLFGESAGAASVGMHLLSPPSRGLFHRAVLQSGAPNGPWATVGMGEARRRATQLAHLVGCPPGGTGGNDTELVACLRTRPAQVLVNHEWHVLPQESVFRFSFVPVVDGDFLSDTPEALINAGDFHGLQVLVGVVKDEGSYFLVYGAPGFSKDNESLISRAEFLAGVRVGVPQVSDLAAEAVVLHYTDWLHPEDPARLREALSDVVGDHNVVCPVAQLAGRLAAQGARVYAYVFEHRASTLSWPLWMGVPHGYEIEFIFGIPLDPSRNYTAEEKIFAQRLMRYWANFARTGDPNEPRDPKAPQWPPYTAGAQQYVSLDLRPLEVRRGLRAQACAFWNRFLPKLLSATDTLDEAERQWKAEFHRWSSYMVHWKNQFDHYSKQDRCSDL
Amyloid-beta precursor protein (Homo sapiens), sequence (P05067 whole entry): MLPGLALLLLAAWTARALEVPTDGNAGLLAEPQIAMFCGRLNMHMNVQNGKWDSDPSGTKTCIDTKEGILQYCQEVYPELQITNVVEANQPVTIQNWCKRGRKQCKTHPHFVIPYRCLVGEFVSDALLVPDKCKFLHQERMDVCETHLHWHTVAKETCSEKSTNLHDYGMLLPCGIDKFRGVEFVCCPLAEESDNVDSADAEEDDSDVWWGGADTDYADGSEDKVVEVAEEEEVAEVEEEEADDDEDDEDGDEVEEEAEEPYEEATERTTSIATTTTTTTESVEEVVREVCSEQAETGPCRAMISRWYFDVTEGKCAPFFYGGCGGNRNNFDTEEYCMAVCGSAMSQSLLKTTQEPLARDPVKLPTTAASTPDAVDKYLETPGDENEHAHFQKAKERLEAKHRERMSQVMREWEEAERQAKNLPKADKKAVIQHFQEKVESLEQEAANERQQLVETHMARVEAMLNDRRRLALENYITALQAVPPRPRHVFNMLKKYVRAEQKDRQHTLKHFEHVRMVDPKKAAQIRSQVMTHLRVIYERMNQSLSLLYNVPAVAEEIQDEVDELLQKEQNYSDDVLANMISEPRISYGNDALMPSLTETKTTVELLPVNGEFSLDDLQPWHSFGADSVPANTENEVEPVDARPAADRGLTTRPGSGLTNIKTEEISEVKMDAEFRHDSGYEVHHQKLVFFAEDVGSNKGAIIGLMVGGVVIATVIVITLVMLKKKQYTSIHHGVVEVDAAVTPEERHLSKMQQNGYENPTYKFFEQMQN
Beta-secretase 1, sequence (P56817 whole entry, the tested form may be a part): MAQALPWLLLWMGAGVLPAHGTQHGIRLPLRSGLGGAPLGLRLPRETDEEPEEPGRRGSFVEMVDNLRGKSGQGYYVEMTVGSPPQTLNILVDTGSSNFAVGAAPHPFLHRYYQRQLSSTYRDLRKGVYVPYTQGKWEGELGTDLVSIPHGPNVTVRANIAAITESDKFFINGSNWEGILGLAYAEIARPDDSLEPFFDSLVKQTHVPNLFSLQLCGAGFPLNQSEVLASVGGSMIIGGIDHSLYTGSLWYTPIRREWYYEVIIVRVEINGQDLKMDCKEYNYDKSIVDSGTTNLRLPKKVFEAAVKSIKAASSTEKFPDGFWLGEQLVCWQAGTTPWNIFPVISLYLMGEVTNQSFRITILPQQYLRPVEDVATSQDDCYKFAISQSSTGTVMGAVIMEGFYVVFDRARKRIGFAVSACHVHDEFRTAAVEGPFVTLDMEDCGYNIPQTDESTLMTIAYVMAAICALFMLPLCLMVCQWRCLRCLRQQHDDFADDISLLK

COc1cc(NC(=O)Cn2nc(-c3ccccc3)c(-c3ccccc3)nc2=O)cc(OC)c1
Activity [1]: Non-Toxic | Activity [2]: Active | Tmax [3]: 9 h | IC50 [4]: 542 nM | inhibition [5]: Active | IC50 [6]: 486 nM | Activity [7]: Non-Toxic | MRT [8]: 32 h | Activity [9]: Active | Activity [10]: Non-Toxic | Activity [11]: Active | Cmax [12]: 355 ng/mL | inhibition [13]: Active | Activity [14]: Non-Toxic | AUC at 72 h [15]: 1740 ng·h/mL | Activity [16]: Active | Activity [17]: Active | Activity [18]: Toxic | inhibition [19]: Active | MTD at 336 h [20]: 1000 mg/kg | Activity [21]: 21% | Activity [22]: Dose-Dependent Effect | Activity [23]: Non-Toxic | Activity [24]: Active | Activity [25]: Active | Activity [26]: 82% | Activity [27]: Non-Toxic | Activity [28]: Active | Kd [29]: 412 nM | Activity [30]: Non-Toxic
